Laboratory results from US5013756A, “Catechol derivatives, a process of preparation thereof, and therapeutical compositions containing the same” (priority 1985, dated 1991).

Legend:
soybean lipoxygenase = target: T1, soybean lipoxygenase (Glycine max, UniProt P08170); assay: In vitro screening of compounds as potential inhibitors of soybean lipoxygenase (spectrophotometric assay, 15-HPETE at 236 nm); format: biochemical; settings: pH 9.00, 10^-4 M arachidonic acid, 90 min, room temperature; for IC50: IC50 (concentration of 50% inhibition)
T1 sequence (P08170 1-839): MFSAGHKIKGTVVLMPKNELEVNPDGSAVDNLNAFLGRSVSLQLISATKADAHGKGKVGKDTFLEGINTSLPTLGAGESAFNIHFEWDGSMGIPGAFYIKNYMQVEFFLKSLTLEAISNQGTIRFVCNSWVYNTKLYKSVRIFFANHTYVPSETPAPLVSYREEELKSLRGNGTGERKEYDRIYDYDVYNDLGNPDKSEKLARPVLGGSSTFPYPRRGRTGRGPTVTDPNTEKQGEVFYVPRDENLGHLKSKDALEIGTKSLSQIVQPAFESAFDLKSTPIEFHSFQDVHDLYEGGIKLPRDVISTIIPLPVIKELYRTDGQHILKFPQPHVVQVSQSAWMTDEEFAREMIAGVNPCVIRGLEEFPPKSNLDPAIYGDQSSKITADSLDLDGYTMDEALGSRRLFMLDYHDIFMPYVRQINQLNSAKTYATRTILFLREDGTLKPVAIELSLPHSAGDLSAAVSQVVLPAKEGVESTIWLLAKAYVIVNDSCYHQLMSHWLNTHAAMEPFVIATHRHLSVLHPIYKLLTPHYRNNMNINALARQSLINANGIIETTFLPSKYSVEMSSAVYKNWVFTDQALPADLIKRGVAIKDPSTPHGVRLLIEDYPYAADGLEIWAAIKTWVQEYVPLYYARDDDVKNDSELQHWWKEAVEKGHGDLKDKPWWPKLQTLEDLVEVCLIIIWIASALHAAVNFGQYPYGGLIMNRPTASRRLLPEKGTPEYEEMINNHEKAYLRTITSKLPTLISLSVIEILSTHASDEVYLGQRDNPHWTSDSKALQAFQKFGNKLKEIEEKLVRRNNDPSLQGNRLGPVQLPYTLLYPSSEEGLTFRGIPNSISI
Experimental: A spectrophotometric method has been developed to determine the enzyme activity according to Corey E.J. et al. (J. Amer. Chem. Soc, 104, 1750-1752; 1982). In a final volume of 1.8 ml was mixed 0.2 M of aerated Borax buffer pH =9.00 with 500 units of soybean lipoxygenase. When inhibitors were tested, they were added in 0.6 ml at final concentrations ranging from 10^-3 M to 10^-8 M followed by a preincubation of 10 minutes at room temperature. The reaction was initiated by 10^-4 M arachidonic acid. Following incubation at room temperature for 90 minutes, 15-HPETE was determined by absorbance measurements at 236 nm.
This method was validated with known inhibitors of lipoxygenase. For each test substance a control was included with boiled lipoxygenase in order to take into account any absorption of the compound at the wavelength used.

xanthine oxidase = xanthine oxidase (Bos taurus, UniProt P80457); assay: In vitro screening of compounds as potential inhibitors of xanthine oxidase; format: biochemical; settings: xanthine oxidase 0.01 units/ml, xanthine 5.10^-5 M, pH 7.4
Description: A unit of activity was defined as a change of 0.001 units/minute.

[1] = target: T2, cyclooxygenase (human platelets microsomes) (Homo sapiens, UniProt P23219); assay: Cycloxygenase inhibition in human platelets microsomes; format: biochemical; settings: cyclooxygenase (PGE2/TxB2), pH 7.9, 37° C.
T2 construct: human platelets microsomes; from tissue; host or cells: human platelet microsomes (microsomal powder)
Experimental: The enzymatic assay was carried out in silanized glassware according to the procedure of P. Ho, P. Walters and H, Sullivan (Prostaglandins 12, 951 1976). The reaction mixture containing 50 mM Tris HCl buffer, pH 7.9, 5mM 2-Tryptophan, […] methemoglobin, 0.2 mg of microsomal powder, and the test compound in a total volume of 0.2 ml was incubated at 37° C. for 5 minutes before the addition of 10 μl of 20 μM^14 C arachidonic acid (0.08 μCI). After 5 minute incubation, the reaction was terminated by the addition of 10 μl of 1M citric acid.
The mixture was extracted four times with 0.5 ml of anhydrous diethyl ether and dried with sodium sulphate. The residue was resuspended in approximately 40 μl of ether and submitted to chromatography on silica gel plates. The elution system consisted of diethyl ether/methanol/acetic acid (90:1:2). The RF values were measured relative to arachidonic acid. Thin layer chromatography plates (TLC) were exposed on LKB ultrafilm for about 24 hours. Partial identification of the spots were carried out by running standards (PGA2, PGB2, PGE2, PGF2c, PXB2, arachidonic acid) in the same solvent system. Quantitative results were obtained by scanning the developed film with a transmission densitometer (EC Apparatus 910) interfaced with a Hewlett Packard 3390A integrator.
The activity of the substances of the cyclooxygenase is quantified by the 2 spots corresponding to PGE2 and TxB2 (ratio PGE2 /TxB2).

[2] = target: T3, 12-lipoxygenase (human leucocytes) (Homo sapiens, UniProt P18054); assay: Experiment No. 2: inhibition of 12-lipoxygenase in human leucocytes stimulated by ionophore and arachidonic acid (12-HETE); format: cell-based; settings: Experiment No. 2, 12-HETE, ionophore A23187 and arachidonic acid
T3 construct: human leucocytic lipoxygenase; endogenous in cells; host or cells: human (polynuclear) leucocytes
T3 sequence (P18054 1-663): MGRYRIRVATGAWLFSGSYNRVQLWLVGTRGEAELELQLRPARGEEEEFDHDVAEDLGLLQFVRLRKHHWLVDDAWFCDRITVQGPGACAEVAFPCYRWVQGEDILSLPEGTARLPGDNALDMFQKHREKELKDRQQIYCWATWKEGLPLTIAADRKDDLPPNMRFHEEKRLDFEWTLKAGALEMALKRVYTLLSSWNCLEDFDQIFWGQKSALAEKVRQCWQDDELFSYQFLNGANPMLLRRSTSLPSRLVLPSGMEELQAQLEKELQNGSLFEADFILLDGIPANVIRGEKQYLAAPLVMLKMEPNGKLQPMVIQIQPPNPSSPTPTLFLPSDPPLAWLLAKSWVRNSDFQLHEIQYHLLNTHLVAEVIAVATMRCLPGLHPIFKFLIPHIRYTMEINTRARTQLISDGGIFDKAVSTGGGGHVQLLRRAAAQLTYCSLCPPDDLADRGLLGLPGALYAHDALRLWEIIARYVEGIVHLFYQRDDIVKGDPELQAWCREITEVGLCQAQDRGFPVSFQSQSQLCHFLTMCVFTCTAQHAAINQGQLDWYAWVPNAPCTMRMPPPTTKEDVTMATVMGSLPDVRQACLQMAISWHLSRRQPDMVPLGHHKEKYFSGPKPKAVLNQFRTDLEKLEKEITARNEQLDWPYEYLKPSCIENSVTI
Experimental: (§1) (b) Inhibition on 5-, 12- and 15- lipoxygenases human polynuclear
(§2) Protocol for experiment No. 2:
(§3) 2. Stimulation with 10 μg of arachidonic acid and 1 μg of ionophore (A23187)/ml for 4 minutes.
(§4) 3. Stopping of the incubation with 1 volume of methanol and analysis by RP-HPLC.
(§5) 4. Measurement of the height of the peaks and comparison with the internal standard (PGB2).
(§6) It will be noted that in experiment No. 1, the leucocytes have been stimulated by the ionophore alone whereas in experiment No. 2, the cells have been stimulated with ionophore and arachidonic acid.

[3] = target: T4, 15-lipoxygenase (human leucocytes) (Homo sapiens, UniProt P16050); assay: Experiment No. 2: inhibition of 15-lipoxygenase in human leucocytes stimulated by ionophore and arachidonic acid (15-HETE); format: cell-based; settings: Experiment No. 2, 15-HETE, ionophore A23187 and arachidonic acid
T4 construct: endogenous in cells; host or cells: human (polynuclear) leucocytes
T4 sequence (P16050 1-662): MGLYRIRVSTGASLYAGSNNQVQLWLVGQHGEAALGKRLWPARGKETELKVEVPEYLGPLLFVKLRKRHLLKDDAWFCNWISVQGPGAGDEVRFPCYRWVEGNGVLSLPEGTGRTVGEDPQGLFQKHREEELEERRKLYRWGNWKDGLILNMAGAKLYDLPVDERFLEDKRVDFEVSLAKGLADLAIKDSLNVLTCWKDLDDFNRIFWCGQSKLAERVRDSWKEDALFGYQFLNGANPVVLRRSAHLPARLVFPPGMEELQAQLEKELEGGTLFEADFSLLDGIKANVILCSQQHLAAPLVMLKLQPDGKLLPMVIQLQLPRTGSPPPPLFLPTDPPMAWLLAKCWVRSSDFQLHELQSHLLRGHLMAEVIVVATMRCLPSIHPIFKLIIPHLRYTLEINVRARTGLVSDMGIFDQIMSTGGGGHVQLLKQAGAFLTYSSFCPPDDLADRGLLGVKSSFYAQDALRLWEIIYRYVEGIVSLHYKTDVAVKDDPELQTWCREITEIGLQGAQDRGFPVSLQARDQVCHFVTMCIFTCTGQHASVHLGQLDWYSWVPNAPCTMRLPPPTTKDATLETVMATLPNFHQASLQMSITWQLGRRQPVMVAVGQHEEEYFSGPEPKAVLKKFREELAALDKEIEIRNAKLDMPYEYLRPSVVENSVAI
Experimental: as §1, §2, §3, §4, §5, §6

[4] = target: T5, 5-lipoxygenase (human leucocytes) (Homo sapiens, UniProt P09917); assay: Experiment No. 2: inhibition of 5-lipoxygenase in human leucocytes stimulated by ionophore and arachidonic acid (5-HETE, LTB4); format: cell-based
T5 construct: human leucocytic lipoxygenase; endogenous in cells; host or cells: human (polynuclear) leucocytes
T5 sequence (P09917 1-674): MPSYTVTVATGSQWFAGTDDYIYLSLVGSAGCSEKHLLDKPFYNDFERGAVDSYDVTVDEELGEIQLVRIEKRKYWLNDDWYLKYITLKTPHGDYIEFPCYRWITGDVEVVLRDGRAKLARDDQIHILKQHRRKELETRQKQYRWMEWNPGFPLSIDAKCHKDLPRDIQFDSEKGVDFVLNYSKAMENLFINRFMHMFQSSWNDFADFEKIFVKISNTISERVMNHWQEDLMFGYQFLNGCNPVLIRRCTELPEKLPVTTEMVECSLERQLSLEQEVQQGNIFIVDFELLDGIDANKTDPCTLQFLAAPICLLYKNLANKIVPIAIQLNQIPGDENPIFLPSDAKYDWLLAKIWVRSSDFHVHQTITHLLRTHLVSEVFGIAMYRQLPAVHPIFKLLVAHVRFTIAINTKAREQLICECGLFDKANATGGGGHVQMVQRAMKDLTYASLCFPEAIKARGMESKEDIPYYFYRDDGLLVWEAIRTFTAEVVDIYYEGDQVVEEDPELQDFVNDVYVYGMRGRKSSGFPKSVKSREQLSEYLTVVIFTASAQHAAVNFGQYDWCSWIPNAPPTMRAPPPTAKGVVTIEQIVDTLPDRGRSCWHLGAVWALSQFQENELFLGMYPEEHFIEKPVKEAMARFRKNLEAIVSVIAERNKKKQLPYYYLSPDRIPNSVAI
Experimental: as §1, §2, §3, §4, §5, §6

HHT (human leucocytes) = assay: Experiment No. 2: HHT formation in human leucocytes stimulated by ionophore and arachidonic acid; format: cell-based; settings: Leucocyte, ionophore A23187 and arachidonic acid
Experimental: as §1, §2, §3, §4, §5

[5] = target: T3, 12-lipoxygenase (human leucocytes); assay: Experiment No. 1: inhibition of 12-lipoxygenase in human leucocytes stimulated by ionophore (12-HETE); format: cell-based; settings: Experiment No. 1, 12-HETE, ionophore A23187 alone
Experimental: (§7) (a) Inhibition on 5- and 12- lipoxygenases human polynuclear
(§8) Protocol for experiment No. 1:
(§9) 2. Stimulation with 1 μg ionophore (A23187)/ml for 4 minutes.
(§10) 3. Stopping of the incubation with 1 volume of methanol.
(§11) 4. Analysis by RP-HPLC, colomn C18, 5 μm.
(§12) 5. Measurement of the height of the peaks and comparison with the internal standard (PGB2).

[6] = target: T5, 5-lipoxygenase (human leucocytes); assay: Experiment No. 1: inhibition of 5-lipoxygenase in human leucocytes stimulated by ionophore (5-HETE, LTB4); format: cell-based; settings: Experiment No. 1, 5-HETE, ionophore A23187 alone
Experimental: as §7, §8, §9, §10, §11, §12

[7] = Experiment No. 2, 5-HETE, ionophore A23187 and arachidonic acid, read-out: IC50 5-HETE
[8] = Experiment No. 2, LTB4, ionophore A23187 and arachidonic acid, read-out: IC50 LTB4 (converted)

T2 sequence (P23219 24-599): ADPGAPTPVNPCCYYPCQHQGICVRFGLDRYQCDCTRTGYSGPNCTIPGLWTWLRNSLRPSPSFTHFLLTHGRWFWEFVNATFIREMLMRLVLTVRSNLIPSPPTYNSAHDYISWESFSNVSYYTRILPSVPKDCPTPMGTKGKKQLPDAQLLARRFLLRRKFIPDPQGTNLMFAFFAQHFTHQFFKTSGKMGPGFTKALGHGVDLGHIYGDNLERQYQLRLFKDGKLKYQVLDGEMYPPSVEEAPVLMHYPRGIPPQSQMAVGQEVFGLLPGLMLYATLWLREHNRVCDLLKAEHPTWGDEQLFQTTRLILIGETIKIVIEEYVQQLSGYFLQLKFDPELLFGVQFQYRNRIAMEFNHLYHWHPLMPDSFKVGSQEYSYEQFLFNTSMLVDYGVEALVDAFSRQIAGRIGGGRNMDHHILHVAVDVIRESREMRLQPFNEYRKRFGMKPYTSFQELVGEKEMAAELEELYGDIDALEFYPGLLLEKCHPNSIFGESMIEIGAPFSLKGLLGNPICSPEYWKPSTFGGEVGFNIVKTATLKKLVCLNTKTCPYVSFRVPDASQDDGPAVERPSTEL
xanthine oxidase, sequence (P80457 whole entry): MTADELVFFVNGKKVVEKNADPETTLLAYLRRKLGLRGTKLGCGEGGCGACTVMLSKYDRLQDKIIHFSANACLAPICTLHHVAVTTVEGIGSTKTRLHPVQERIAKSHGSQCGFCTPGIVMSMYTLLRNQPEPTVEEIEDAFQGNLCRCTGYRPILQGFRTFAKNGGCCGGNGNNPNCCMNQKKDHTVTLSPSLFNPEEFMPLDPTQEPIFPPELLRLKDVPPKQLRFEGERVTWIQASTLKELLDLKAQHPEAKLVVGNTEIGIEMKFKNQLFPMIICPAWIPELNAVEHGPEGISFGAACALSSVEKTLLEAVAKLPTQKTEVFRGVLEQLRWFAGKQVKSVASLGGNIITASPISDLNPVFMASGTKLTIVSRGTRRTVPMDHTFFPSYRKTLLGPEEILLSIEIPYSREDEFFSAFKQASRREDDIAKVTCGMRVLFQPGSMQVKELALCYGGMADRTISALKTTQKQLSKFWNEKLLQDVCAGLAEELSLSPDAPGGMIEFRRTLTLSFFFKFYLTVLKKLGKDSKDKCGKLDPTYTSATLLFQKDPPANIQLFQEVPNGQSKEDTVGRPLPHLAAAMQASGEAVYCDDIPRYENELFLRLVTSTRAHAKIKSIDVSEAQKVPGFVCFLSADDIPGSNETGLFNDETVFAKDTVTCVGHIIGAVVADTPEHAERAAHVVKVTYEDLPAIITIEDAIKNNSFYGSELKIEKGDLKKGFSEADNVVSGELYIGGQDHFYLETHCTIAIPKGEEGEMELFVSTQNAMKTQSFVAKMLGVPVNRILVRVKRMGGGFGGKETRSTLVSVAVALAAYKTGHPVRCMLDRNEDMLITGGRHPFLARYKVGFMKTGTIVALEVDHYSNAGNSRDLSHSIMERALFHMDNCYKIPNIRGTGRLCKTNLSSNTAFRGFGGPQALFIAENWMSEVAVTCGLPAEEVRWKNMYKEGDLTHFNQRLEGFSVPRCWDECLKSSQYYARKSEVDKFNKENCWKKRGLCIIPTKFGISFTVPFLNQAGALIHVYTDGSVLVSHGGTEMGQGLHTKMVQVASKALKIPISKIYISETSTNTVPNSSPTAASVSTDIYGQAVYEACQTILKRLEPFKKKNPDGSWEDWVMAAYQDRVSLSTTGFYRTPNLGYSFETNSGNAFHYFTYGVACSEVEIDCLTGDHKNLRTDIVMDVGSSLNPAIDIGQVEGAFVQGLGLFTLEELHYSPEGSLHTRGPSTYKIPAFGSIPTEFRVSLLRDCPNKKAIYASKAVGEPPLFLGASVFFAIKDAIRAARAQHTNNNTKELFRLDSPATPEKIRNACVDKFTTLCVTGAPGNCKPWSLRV

Oc1ccc(S)cc1O [drawing 6]
IC50 (soybean lipoxygenase): 93 µM

Oc1ccc(S)cc1O [drawing 27]
IC50 (xanthine oxidase): 237 µM

CCCCCCC(C)Sc1ccc(O)c(O)c1 (centres unmarked) [drawing 23]
IC50 [1]: 3.46 µM

Oc1ccc(S)cc1O [drawing 20]
IC50 [1]: 9.23 µM

CC1CCC(C(C)C)C(Sc2ccc(O)c(O)c2)C1 (centres unmarked) [drawing 8]
IC50 (soybean lipoxygenase): 24.1 µM

CCCCCCC(C)Sc1ccc(O)c(O)c1 (centres unmarked) [drawing 34]
IC50 [2]: 2 µM | IC50 [3]: 10 µM | IC50 [4, 7]: 1 µM | IC50 [4, 8]: 1 µM | IC50 (HHT (human leucocytes)): 2 µM

CCCCCCC(C)Sc1ccc(O)c(O)c1 (centres unmarked) [drawing 29]
IC50 (xanthine oxidase): 557 µM

CCC(C)CSc1ccc(O)c(O)c1 (centres unmarked) [drawing 7]
IC50 (soybean lipoxygenase): 104 µM

S=C(N=Nc1ccccc1)NNc1ccccc1 [Diphenylthiocarbazone, reference compound]
IC50 (soybean lipoxygenase): 1.61 µM

CCCCCCC(C)Sc1ccc(O)c(O)c1 (centres unmarked) [drawing 9]
IC50 (soybean lipoxygenase): 27.6 µM

CCC(C)CSc1ccc(O)c(O)c1 (centres unmarked) [drawing 30]
IC50 [5]: 1 µM | IC50 [6]: 1 µM

CCC(C)CSc1ccc(O)c(O)c1 (centres unmarked) [drawing 21]
IC50 [1]: 4.31 µM

N=C(N)Sc1ccc(O)c(O)c1
IC50 (concentration of 50% inhibition) (soybean lipoxygenase): Not active

Nc1nc2ncc(CNc3ccc(C(=O)N[C@@H](CCC(=O)O)C(=O)O)cc3)nc2c(=O)[nH]1 [Folic acid, reference compound]
IC50 (xanthine oxidase): 0.676 µM

CCC(C)CSc1ccc(O)c(O)c1 (centres unmarked) [drawing 33]
IC50 [2]: 10 µM | IC50 [3]: 10 µM | IC50 [4, 8]: 3 µM | IC50 (HHT (human leucocytes)): 50 µM

CCCCCCC(C)Sc1ccc(O)c(O)c1 (centres unmarked) [drawing 10]
IC50 (soybean lipoxygenase): 24.5 µM

CC1CCC(C(C)C)C(Sc2ccc(O)c(O)c2)C1 (centres unmarked) [drawing 22]
IC50 [1]: 16.8 µM

Oc1ccc(S)cc1O [drawing 31]
IC50 [5]: 2 µM | IC50 [6]: 2 µM

Oc1ccc(S)cc1O [drawing 32]
IC50 [3]: 50 µM | IC50 [4, 7]: 1 µM | IC50 [4, 8]: 3 µM | IC50 (HHT (human leucocytes)): 20 µM

CCC(C)CSc1ccc(O)c(O)c1 (centres unmarked) [drawing 28]
IC50 (xanthine oxidase): 511 µM
